Results taken from BindingDB's records for doi:10.1016/s0960-894x(01)00497-8 (Universidad De Sevilla, 2001).
Where a name gives a salt, the structure may show the parent alone.

Experiments:
[1] = Inhibitory concentration against alpha-L-Fucosidase of human placenta
[2] = Inhibitory activity against alpha-L-Fucosidase of bovine epididymis expressed as Ki
[3] = Inhibitory concentration against alpha-L-Fucosidase of bovine epididymis
[4] = Inhibitory activity against alpha-L-fucosidase of bovine epididymis expressed as Ki
[5] = In vitro inhibition of alpha-L-fucosidase isolated from bovine kidney.
[6] = target: alpha-L-fucosidase (Bacillus sp. K40T); assay: Inhibitory activity against alpha-L-fucosidase of bacillus species (K40T) expressed as Ki

SMILES | Ki [1] [µM] | also measured
C[C@@H]1N[C@@H](CO)[C@H](O)[C@@H]1O | 1.4 | 
C[C@H]1N[C@H](CO)[C@H](O)[C@@H]1O | 9 | 
CC1NCC(O)C1O (stereo unspecified) [2-Methyl-pyrrolidine-3,4-diol] | 2 | 
CC1NC(S(=O)(=O)O)C(O)C1O (stereo unspecified) [3,4-Dihydroxy-5-methyl-pyrrolidine-2-sulfonic acid] | 0.01 | 
COC(=O)c1cc(C2NCC(O)C2O)oc1C (stereo unspecified) [5-(3,4-Dihydroxy-pyrrolidin-2-yl)-2-methyl-furan-3-carboxylic acid methyl ester] |  | Ki [2]: 6.5 µM; IC50 [3]: 100 µM
CC1CN[C@@H](N)[C@H](O)C1O (stereo partly drawn) [(2R,3S)-2-Amino-5-methyl-piperidine-3,4-diol] | 0.016 | 
CC1N=C(NN)[C@@H](O)[C@H](O)C1O (stereo partly drawn) [(4R,5R)-6-Hydrazino-2-methyl-2,3,4,5-tetrahydro-pyridine-3,4,5-triol] | 0.82 | 
CCCCNC1N[C@@H](CO)C(O)[C@@H](O)[C@@H](CO)N1 (stereo partly drawn) [(6S,7R)-2-Butylamino-4,7-bis-hydroxymethyl-[1,3]diazepane-5,6-diol; trifluoroacetate] | 2.8 | 
OC1CN(Cc2ccccc2)C[C@@H](O)C(O)C1O (stereo partly drawn) [(R)-1-Benzyl-azepane-3,4,5,6-tetraol] |  | Ki [4]: 23.4 µM
C=CCOC1OC(CO)C(O)C(O)[C@H]1OC1SC(C)C(O)[C@@H](O)C1O (stereo partly drawn) [(R)-2-((R)-2-Allyloxy-4,5-dihydroxy-6-hydroxymethyl-tetrahydro-pyran-3-yloxy)-6-methyl-tetrahydro-thiopyran-3,4,5-triol] |  | Ki [5]: 30 µM; Ki [6]: 0.21 µM
CC1SC(Sc2ccc([N+](=O)[O-])cc2)C(O)[C@H](O)C1O (stereo partly drawn) [(R)-2-Methyl-6-(4-nitro-phenylsulfanyl)-tetrahydro-thiopyran-3,4,5-triol] | 3.3 | 
CC1C(N)C(O)[C@H](O)C1O (stereo partly drawn) [(R)-4-Amino-5-methyl-cyclopentane-1,2,3-triol] | 15 | 
CC1C(NCc2ccccc2)C(O)[C@H](O)C1O (stereo partly drawn) [(R)-4-Benzylamino-5-methyl-cyclopentane-1,2,3-triol] | 0.68 | 
CC(=O)NCC1NCC(O)[C@@H](O)[C@@H]1O (stereo partly drawn) [N-((3R,4R)-3,4,5-Trihydroxy-piperidin-2-ylmethyl)-acetamide] | 4 | 
